Experimental data from BigSolDB 2.1.

COc1ccc(P(c2ccc(OC)cc2)c2ccc(OC)cc2)cc1
Settings | solubility (mole fraction)
in 2-butanone, 293.16 K | 0.00621
in 2-butanone, 298.17 K | 0.00684
in 2-butanone, 303.18 K | 0.00749
in 2-butanone, 308.14 K | 0.00815
in 2-butanone, 313.16 K | 0.00884
in 2-butanone, 318.17 K | 0.00962
in 2-butanone, 323.16 K | 0.0103
in 2-butanone, 328.17 K | 0.0113
in 2-butanone, 333.16 K | 0.0121
in 2-ethoxyethanol, 293.16 K | 0.00522
in 2-ethoxyethanol, 298.17 K | 0.00693
in 2-ethoxyethanol, 303.18 K | 0.00862
in 2-ethoxyethanol, 308.14 K | 0.0108
in 2-ethoxyethanol, 313.16 K | 0.0136
in 2-ethoxyethanol, 318.17 K | 0.0168
in 2-ethoxyethanol, 323.16 K | 0.0209
in 2-ethoxyethanol, 328.17 K | 0.0255
in 2-ethoxyethanol, 333.16 K | 0.0311
in 2-ethoxyethanol, 338.17 K | 0.0377
in 2-ethoxyethanol, 343.15 K | 0.0454
in benzene, 293.16 K | 0.00029
in benzene, 298.17 K | 0.00037
in benzene, 303.18 K | 0.00045
in benzene, 308.14 K | 0.00054
in benzene, 313.16 K | 0.00068
in benzene, 318.17 K | 0.00082
in benzene, 323.16 K | 0.00099
in cyclohexane, 299.15 K | 0.00054
in cyclohexane, 304.05 K | 0.00082
in cyclohexane, 308.85 K | 0.00107
in cyclohexane, 313.95 K | 0.00151
in cyclohexane, 318.45 K | 0.00231
in cyclohexane, 323.65 K | 0.00326
in cyclohexane, 328.45 K | 0.00436
in cyclohexane, 332.85 K | 0.00596
in cyclohexane, 337.65 K | 0.00848
in diethyl ether, 293.16 K | 0.00587
in diethyl ether, 296.17 K | 0.00721
in diethyl ether, 299.18 K | 0.00889
in diethyl ether, 301.16 K | 0.0101
in diethyl ether, 303.15 K | 0.0114
in ethanol, 293.16 K | 0.00084
in ethanol, 298.17 K | 0.00102
in ethanol, 303.18 K | 0.00121
in ethanol, 308.14 K | 0.00142
in ethanol, 313.16 K | 0.00173
in ethanol, 318.17 K | 0.00202
in ethanol, 323.16 K | 0.00241
in methanol, 293.16 K | 0.00022
in methanol, 298.17 K | 0.00029
in methanol, 303.18 K | 0.0004
in methanol, 308.14 K | 0.00051
in methanol, 313.16 K | 0.00066
in methanol, 318.17 K | 0.00083
in methanol, 323.16 K | 0.00107
in toluene, 293.16 K | 0.00035
in toluene, 298.17 K | 0.00042
in toluene, 303.18 K | 0.00051
in toluene, 308.14 K | 0.00061
in toluene, 313.16 K | 0.00075
in toluene, 318.17 K | 0.00089
in toluene, 323.16 K | 0.00105
in toluene, 328.17 K | 0.00123
in toluene, 333.15 K | 0.00145

COc1ccc(P(=O)(c2ccc(OC)cc2)c2ccc(OC)cc2)cc1
Settings | solubility (mole fraction)
in 2-butanone, 288.15 K | 0.00567
in 2-butanone, 293.16 K | 0.00642
in 2-butanone, 298.17 K | 0.00725
in 2-butanone, 303.18 K | 0.00814
in 2-butanone, 308.14 K | 0.00907
in 2-butanone, 313.16 K | 0.0102
in 2-butanone, 318.17 K | 0.0112
in 2-butanone, 323.16 K | 0.0125
in 2-butanone, 328.17 K | 0.0139
in 2-butanone, 333.16 K | 0.0153
in 2-ethoxyethanol, 293.16 K | 0.00573
in 2-ethoxyethanol, 298.17 K | 0.00716
in 2-ethoxyethanol, 303.18 K | 0.00919
in 2-ethoxyethanol, 308.14 K | 0.0114
in 2-ethoxyethanol, 313.16 K | 0.0143
in 2-ethoxyethanol, 318.17 K | 0.0175
in 2-ethoxyethanol, 323.16 K | 0.0223
in 2-ethoxyethanol, 328.17 K | 0.0276
in 2-ethoxyethanol, 333.17 K | 0.033
in 2-ethoxyethanol, 338.25 K | 0.0401
in 2-ethoxyethanol, 343.17 K | 0.0482
in benzene, 293.16 K | 0.00031
in benzene, 298.17 K | 0.00039
in benzene, 303.18 K | 0.00048
in benzene, 308.14 K | 0.00061
in benzene, 313.16 K | 0.00076
in benzene, 318.17 K | 0.00094
in benzene, 323.16 K | 0.00112
in cyclohexane, 298.15 K | 0.00053
in cyclohexane, 304.05 K | 0.00082
in cyclohexane, 308.32 K | 0.00113
in cyclohexane, 313.95 K | 0.00166
in cyclohexane, 318.45 K | 0.00229
in cyclohexane, 323.65 K | 0.00322
in cyclohexane, 328.45 K | 0.00455
in cyclohexane, 332.85 K | 0.00589
in cyclohexane, 337.65 K | 0.00806
in diethyl ether, 293.16 K | 0.00607
in diethyl ether, 296.17 K | 0.00739
in diethyl ether, 299.18 K | 0.00929
in diethyl ether, 301.16 K | 0.0106
in diethyl ether, 303.15 K | 0.0118
in ethanol, 298.25 K | 0.00037
in ethanol, 303.75 K | 0.00049
in ethanol, 308.05 K | 0.00067
in ethanol, 313.35 K | 0.00102
in ethanol, 317.75 K | 0.00128
in ethanol, 322.35 K | 0.00168
in ethanol, 328.15 K | 0.00236
in methanol, 293.35 K | 0.00019
in methanol, 298.25 K | 0.00024
in methanol, 303.15 K | 0.00031
in methanol, 308.05 K | 0.00042
in methanol, 313.15 K | 0.00056
in methanol, 318.15 K | 0.00071
in methanol, 322.65 K | 0.00098
in toluene, 293.16 K | 0.00036
in toluene, 298.17 K | 0.00045
in toluene, 303.18 K | 0.00055
in toluene, 308.14 K | 0.00066
in toluene, 313.16 K | 0.00083
in toluene, 318.17 K | 0.00099
in toluene, 323.16 K | 0.00121
in toluene, 328.17 K | 0.00143
in toluene, 333.15 K | 0.00169
